Earlier results as cited in US20090023693A1, “NEW DROSPIRENONE/17BETA-ESTRADIOL REGIMEN, PHARMACEUTICAL COMBINATION PRODUCT AND KIT FOR PERFORMING THIS REGIMEN” (priority 2007, published 2009).

Columns and labels:
[1] = target: T1, mineralocorticoid receptor (Homo sapiens, UniProt P08235); conditions: compared with aldosterone
T1 sequence (P08235 1-984): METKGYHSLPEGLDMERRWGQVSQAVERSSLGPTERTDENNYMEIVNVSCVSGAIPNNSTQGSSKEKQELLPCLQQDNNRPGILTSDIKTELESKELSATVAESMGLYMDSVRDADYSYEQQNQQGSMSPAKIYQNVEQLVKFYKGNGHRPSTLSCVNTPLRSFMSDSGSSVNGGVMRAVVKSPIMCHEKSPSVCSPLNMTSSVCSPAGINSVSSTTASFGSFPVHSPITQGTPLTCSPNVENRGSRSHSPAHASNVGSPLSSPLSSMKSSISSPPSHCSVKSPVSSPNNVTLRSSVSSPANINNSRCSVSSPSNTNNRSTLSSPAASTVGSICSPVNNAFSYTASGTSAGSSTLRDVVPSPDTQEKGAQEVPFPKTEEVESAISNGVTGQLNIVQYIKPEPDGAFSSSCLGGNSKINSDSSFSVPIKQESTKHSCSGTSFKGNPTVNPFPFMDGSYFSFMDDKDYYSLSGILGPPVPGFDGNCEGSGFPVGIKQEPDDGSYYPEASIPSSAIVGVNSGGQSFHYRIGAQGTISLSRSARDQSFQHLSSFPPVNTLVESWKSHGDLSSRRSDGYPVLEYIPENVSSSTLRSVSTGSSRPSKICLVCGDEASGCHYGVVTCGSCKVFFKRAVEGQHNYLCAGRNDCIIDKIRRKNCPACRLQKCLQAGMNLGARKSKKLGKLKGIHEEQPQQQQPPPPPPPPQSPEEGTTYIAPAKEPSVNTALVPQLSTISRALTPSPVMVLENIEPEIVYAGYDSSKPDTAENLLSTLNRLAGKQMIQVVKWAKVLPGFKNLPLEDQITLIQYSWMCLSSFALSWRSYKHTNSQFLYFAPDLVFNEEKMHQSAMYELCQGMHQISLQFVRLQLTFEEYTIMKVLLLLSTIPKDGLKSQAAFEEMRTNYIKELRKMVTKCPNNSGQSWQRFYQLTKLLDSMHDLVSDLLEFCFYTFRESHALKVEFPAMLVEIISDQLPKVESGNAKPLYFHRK

[2] = oral vs transdermal

For `C[C@]12CCC(=O)C=C1[C@@H]1C[C@@H]1[C@H]1[C@@H]3[C@@H]4C[C@@H]4[C@@]4(CCC(=O)O4)[C@@]3(C)CC[C@@H]12` [drospirenone, Drospirenone], the “affinity for the mineralocorticoid receptor relative to aldosterone” value [1] is listed as “about five times that of aldosterone”, the “bioavailabilities after oral and transdermal administration” value [2] is listed as “roughly the same” and the blood pressure (hypertensive women) is listed as “lowered”. For the same compound, the “salt and water retention” value (in vivo) was “reduced”.
